Laboratory results from publication PMC9959982 (International Journal of Molecular Sciences, 2023).
Read-outs that look alike come from different tables or passages of the source.

Columns and labels:
EV-A71 BrCr strain [1] = details: Figure 1; read-out: EV71 EC50; cited from earlier work
HIV-1 (NL4.3) [2] = details: printed in Figure 1, prototypes of previous work; cited from earlier work
EV-A71 VP1_P246S = format: cell-based, Enterovirus A71; details: VP1_P246S mutant
EV-A71 VP1_S184T = format: cell-based, Enterovirus A71; details: VP1_S184T mutant
EV-A71 VP1_S184T_P246S = format: cell-based, Enterovirus A71; details: VP1_S184T_P246S double mutant
rhabdosarcoma (RD) cells = assay: Adverse effect on uninfected RD cells (MTS/PMS); details: RD cells
MT-4 cells = assay: Cytotoxicity in MT-4 cells (MTS/PES); format: cell-based; details: 50% reduction in cell viability, 5 days
EV-A71 BrCr strain [3] = assay: Virus-induced cell death assay, EV-A71 BrCr lab strain in RD cells; format: cell-based, Enterovirus A71; details: for EC50: EV-A71 BrCr (wild type)
HIV-2 (ROD) = assay: Inhibition of HIV-induced cytopathic effect in MT-4 cells, HIV-2; format: cell-based
[4] = Adverse effect on uninfected RD cells (MTS/PMS); details: human, uninfected rhabdosarcoma (RD) cells
HIV-1 (NL4.3) [5] = assay: microbe, parasite or virus in culture; format: cell-based; details: for EC50: virus-induced cytopathic effect reduced by 50%
[6] = Cytotoxicity in MT-4 cells (MTS/PES); format: cell-based; details: human, 50% reduction in cell viability
in vitro = details: human
[7] = Enterovirus A, EVA71, RD, RD cells
[8] = Human immunodeficiency virus 2, MT4, virus-induced cytopathic effect reduced by 50%
[9] = Human immunodeficiency virus 1, MT4, MT-4 cells

## O=C(CCC(CCC(=O)NC(Cc1c(-c2cc(C(=O)O)cc(C(=O)O)c2)[nH]c2ccccc12)C(=O)O)(CCC(=O)NC(Cc1c(-c2cc(C(=O)O)cc(C(=O)O)c2)[nH]c2ccccc12)C(=O)O)[N+](=O)[O-])NC(Cc1c(-c2cc(C(=O)O)cc(C(=O)O)c2)[nH]c2ccccc12)C(=O)O (stereo not shown) [AL-470]
EV-A71 BrCr strain [1]
  EC50: 0.35 ± 0.03 µM
HIV-1 (NL4.3) [2]
  EC50: 0.27 ± 0.12 µM

## O=C(CCOCC(COCCC(=O)NC(Cc1c(CCCNC(=O)Nc2cc(C(=O)O)cc(C(=O)O)c2)[nH]c2ccccc12)C(=O)O)(COCCC(=O)NC(Cc1c(CCCNC(=O)Nc2cc(C(=O)O)cc(C(=O)O)c2)[nH]c2ccccc12)C(=O)O)COCCC(=O)NC(Cc1c(CCCNC(=O)Nc2cc(C(=O)O)cc(C(=O)O)c2)[nH]c2ccccc12)C(=O)O)NC(Cc1c(CCCNC(=O)Nc2cc(C(=O)O)cc(C(=O)O)c2)[nH]c2ccccc12)C(=O)O (stereo not shown) [Compound 23]
EV-A71 VP1_P246S
  EC50: 0.22 ± 0.01 µM
EV-A71 VP1_S184T
  EC50: 0.41 ± 0.03 µM
EV-A71 VP1_S184T_P246S
  EC50: 0.58 ± 0.2 µM
Rhabdosarcoma (RD) cells
  CC50: > 50 µM
MT-4 cells
  CC50: > 50 µM

## O=C(CCOCC(COCCC(=O)NC(Cc1c(CCCCCNC(=O)Nc2cc(C(=O)O)cc(C(=O)O)c2)[nH]c2ccccc12)C(=O)O)(COCCC(=O)NC(Cc1c(CCCCCNC(=O)Nc2cc(C(=O)O)cc(C(=O)O)c2)[nH]c2ccccc12)C(=O)O)COCCC(=O)NC(Cc1c(CCCCCNC(=O)Nc2cc(C(=O)O)cc(C(=O)O)c2)[nH]c2ccccc12)C(=O)O)NC(Cc1c(CCCCCNC(=O)Nc2cc(C(=O)O)cc(C(=O)O)c2)[nH]c2ccccc12)C(=O)O (stereo not shown) [Compound 24]
Rhabdosarcoma (RD) cells
  CC50: > 100 µM
MT-4 cells
  CC50: 30.9 ± 0.98 µM

## O=C(CCOCC(COCCC(=O)NC(Cc1c(CCCCCCCCNC(=O)Nc2cc(C(=O)O)cc(C(=O)O)c2)[nH]c2ccccc12)C(=O)O)(COCCC(=O)NC(Cc1c(CCCCCCCCNC(=O)Nc2cc(C(=O)O)cc(C(=O)O)c2)[nH]c2ccccc12)C(=O)O)COCCC(=O)NC(Cc1c(CCCCCCCCNC(=O)Nc2cc(C(=O)O)cc(C(=O)O)c2)[nH]c2ccccc12)C(=O)O)NC(Cc1c(CCCCCCCCNC(=O)Nc2cc(C(=O)O)cc(C(=O)O)c2)[nH]c2ccccc12)C(=O)O (stereo not shown) [Compound 25]
Rhabdosarcoma (RD) cells
  CC50: > 100 µM
MT-4 cells
  CC50: > 50 µM

## O=C(O)CCCc1[nH]c2ccccc2c1C[C@H](NC(=O)CCOCC(COCCC(=O)N[C@@H](Cc1c(CCCC(=O)O)[nH]c2ccccc12)C(=O)O)(COCCC(=O)N[C@H](Cc1c(CCCC(=O)O)[nH]c2ccccc12)C(=O)O)COCCC(=O)N[C@H](Cc1c(CCCC(=O)O)[nH]c2ccccc12)C(=O)O)C(=O)O [Compound 32]
Rhabdosarcoma (RD) cells
  CC50: > 100 µM
MT-4 cells
  CC50: > 50 µM

## O=C(O)CCCCCCc1[nH]c2ccccc2c1C[C@H](NC(=O)CCOCC(COCCC(=O)N[C@@H](Cc1c(CCCCCCC(=O)O)[nH]c2ccccc12)C(=O)O)(COCCC(=O)N[C@H](Cc1c(CCCCCCC(=O)O)[nH]c2ccccc12)C(=O)O)COCCC(=O)N[C@H](Cc1c(CCCCCCC(=O)O)[nH]c2ccccc12)C(=O)O)C(=O)O [Compound 33]
Rhabdosarcoma (RD) cells
  CC50: > 100 µM
MT-4 cells
  CC50: > 50 µM

## O=C(CCOCC(COCCC(=O)Nc1cc(C(=O)O)cc(C(=O)O)c1)(COCCC(=O)Nc1cc(C(=O)O)cc(C(=O)O)c1)COCCC(=O)Nc1cc(C(=O)O)cc(C(=O)O)c1)Nc1cc(C(=O)O)cc(C(=O)O)c1 [Compound 35]
EV-A71 BrCr strain [3]; RD cells
  EC50: 8.48 ± 2.34 µM
EV-A71 BrCr strain [3]; EV-A71 BrCr, RD cells
  SI selectivity index (CC50/EC50): >12
EV-A71 BrCr strain [3]; [7]
  EC50: 8.5 µM
HIV-2 (ROD); [8]
  EC50: > 50 µM
[4]
  CC50 at 3 days: > 100 µM
HIV-1 (NL4.3) [5]; [9]
  EC50: > 50 µM
HIV-1 (NL4.3) [5]; at concentrations up to 50 µM
  activity against HIV-1: inactive
[6]
  CC50 at 5 days: > 50 µM

## O=C(CCOCC(COCCC(=O)NCCNC(=O)Nc1cc(C(=O)O)cc(C(=O)O)c1)(COCCC(=O)NCCNC(=O)Nc1cc(C(=O)O)cc(C(=O)O)c1)COCCC(=O)NCCNC(=O)Nc1cc(C(=O)O)cc(C(=O)O)c1)NCCNC(=O)Nc1cc(C(=O)O)cc(C(=O)O)c1 [Compound 40]
Rhabdosarcoma (RD) cells
  CC50: > 100 µM
MT-4 cells
  CC50: > 50 µM

## CN[C@@H]1[C@H](O[C@@H]2OC[C@@H](O)[C@H](O)[C@H]2O)[C@@H](O)[C@H](O[C@H]2c3cc(C)c(C(=O)N[C@H](C)C(=O)O)c(O)c3-c3c(cc4c(c3O)C(=O)c3cc(OC)cc(O)c3C4=O)[C@@H]2O)O[C@@H]1C [PRM-A, pradimicin A]
HIV-2 (ROD); [8]
  EC50: 5.9 ± 3.7 µM
HIV-1 (NL4.3) [5]; [9]
  EC50: 3.3 ± 1.2 µM
HIV-1 (NL4.3) [5]; MT-4 cells, Table 1
  SI selectivity index (CC50/EC50): >30.3
[6]
  CC50 at 5 days: > 100 µM

## CCOC(=O)c1ccc(OCCC2CCN(c3ccc(C)nn3)CC2)cc1 [Pirodavir, pirodavir, reference compound]
In vitro
  CC50 at 3 days: > 100 µM
EV-A71 BrCr strain [3]
  SI selectivity index (CC50/EC50): >333
EV-A71 BrCr strain [3]; [7]
  EC50: 0.3 ± 0.001 µM

## dextran sulfate-5000 [DS-5000]
HIV-2 (ROD); virus-induced cytopathic effect reduced by 50%
  EC50: 0.03 ± 0.01 µM
HIV-1 (NL4.3) [5]; MT-4 cells
  EC50: 0.07 ± 0.02 µM
